The values that follow come from US8148391B2 (Cephalon, Inc., priority 2006, dated 2012).

Test [1] deals with T1, baculovirus-expressed ALK (Homo sapiens, UniProt Q9UM73).
T1 construct: host or cells: baculovirus expression system
Briefly: ALK Kinase Assay (ELISA-type, time-resolved fluorescence). The test is classed as biochemical. The settings on record: ALK kinase inhibition, 1 μM ATP (Km level); read-out: ALK Activity. The essentials: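 Plates coated with phospholipase C-γ substrate (10 μg/mL in TBS); reaction started with 30 ng/ml ALK and run 15 min at 37° C. Phosphorylated substrate detected with Eu-N1-labeled PT66 antibody. IC50 from sigmoidal variable-slope fit of percent inhibition vs log concentration.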

Test [2] deals with T2, c-Met (cytoplasmic domain) (Homo sapiens, UniProt P08581).
T2 construct: 10 ng/mL c-Met (cytoplasmic domain, Invitrogen Corporation #PV3143); purchased Invitrogen Corporation PV3143
In words: c-Met Kinase Assay (same methods as for ALK, with modifications). It counts as biochemical. To be noted: c-Met kinase inhibition, 1 μM ATP (Km level); read-out: cMet Activity. Put shortly:
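Europium-labeled PT66 antibody (Eu-N1) detects substrate phosphorylation on wells coated with phospholipase C-γ at 10 μg/mL. The kinase, the cytoplasmic domain of c-Met at 10 ng/mL, starts the reaction, which proceeds 15 minutes at 37° C.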

T1 sequence (Q9UM73 19-1620): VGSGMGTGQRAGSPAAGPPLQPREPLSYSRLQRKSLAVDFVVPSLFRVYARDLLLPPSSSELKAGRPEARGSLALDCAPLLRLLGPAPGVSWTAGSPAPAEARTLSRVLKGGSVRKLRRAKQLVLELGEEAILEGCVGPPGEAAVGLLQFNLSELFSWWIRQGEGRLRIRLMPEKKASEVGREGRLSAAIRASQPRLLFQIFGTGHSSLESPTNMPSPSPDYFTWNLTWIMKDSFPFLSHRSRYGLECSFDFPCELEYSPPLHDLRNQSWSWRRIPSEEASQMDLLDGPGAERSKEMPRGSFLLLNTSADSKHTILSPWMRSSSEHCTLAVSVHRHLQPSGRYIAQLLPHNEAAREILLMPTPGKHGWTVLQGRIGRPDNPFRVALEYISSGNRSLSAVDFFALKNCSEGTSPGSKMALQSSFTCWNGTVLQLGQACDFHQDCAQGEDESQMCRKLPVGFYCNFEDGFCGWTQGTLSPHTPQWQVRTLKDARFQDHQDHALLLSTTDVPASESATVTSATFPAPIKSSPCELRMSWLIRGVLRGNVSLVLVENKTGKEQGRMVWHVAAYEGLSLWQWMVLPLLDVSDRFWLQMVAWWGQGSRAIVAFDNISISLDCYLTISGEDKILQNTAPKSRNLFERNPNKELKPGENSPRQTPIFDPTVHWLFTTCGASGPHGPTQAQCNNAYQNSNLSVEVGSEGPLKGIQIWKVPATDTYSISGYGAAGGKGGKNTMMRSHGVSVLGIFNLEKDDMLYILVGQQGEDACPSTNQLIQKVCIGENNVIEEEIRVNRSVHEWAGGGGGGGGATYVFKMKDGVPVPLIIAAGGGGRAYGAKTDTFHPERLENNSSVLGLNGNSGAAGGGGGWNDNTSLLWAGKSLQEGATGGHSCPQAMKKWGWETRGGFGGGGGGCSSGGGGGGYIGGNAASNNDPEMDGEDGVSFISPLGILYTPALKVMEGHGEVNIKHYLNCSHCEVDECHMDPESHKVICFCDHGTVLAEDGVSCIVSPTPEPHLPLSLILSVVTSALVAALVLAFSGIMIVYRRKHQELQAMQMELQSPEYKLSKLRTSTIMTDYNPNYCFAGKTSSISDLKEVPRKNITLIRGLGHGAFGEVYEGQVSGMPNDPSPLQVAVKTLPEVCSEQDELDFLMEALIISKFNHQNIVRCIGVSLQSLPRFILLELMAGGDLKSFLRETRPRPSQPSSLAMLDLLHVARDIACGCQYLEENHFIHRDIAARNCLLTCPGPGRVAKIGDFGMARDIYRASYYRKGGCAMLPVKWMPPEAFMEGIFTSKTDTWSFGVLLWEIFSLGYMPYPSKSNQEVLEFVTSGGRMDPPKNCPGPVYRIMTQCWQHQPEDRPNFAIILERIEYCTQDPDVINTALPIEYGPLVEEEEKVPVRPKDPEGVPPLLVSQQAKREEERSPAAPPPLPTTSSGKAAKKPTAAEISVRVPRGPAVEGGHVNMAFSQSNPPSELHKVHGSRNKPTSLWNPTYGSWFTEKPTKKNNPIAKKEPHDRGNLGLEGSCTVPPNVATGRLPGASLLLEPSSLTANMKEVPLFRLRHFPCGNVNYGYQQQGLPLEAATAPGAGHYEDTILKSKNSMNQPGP
T2 sequence (P08581 956-1390 limits assumed): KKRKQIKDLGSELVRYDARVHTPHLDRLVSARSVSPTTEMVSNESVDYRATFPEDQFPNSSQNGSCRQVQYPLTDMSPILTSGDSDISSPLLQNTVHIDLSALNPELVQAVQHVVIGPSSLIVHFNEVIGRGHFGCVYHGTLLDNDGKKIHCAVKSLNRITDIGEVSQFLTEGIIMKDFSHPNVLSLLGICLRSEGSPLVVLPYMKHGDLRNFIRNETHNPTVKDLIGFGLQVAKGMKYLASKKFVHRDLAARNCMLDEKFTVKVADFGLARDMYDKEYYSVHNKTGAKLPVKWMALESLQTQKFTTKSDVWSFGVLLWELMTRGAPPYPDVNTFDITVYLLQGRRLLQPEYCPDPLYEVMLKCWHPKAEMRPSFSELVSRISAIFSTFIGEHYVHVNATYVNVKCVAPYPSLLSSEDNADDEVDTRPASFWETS

On to `CN1C(=O)CCCc2ccc(Nc3ncc(Cl)c(NC4C5C=CC(C5)C4C(N)=O)n3)cc21` (stereo not drawn) [Example 110, (2-exo,3-exo)-3-[5-Chloro-2-(1-methyl-2-oxo-2,3,4,5-tetrahydro-1H-benzo[b]azepin-8-ylamino)pyrimidin-4-ylamino]-bicyclo[2.2.1]hept-5-ene-2-carboxylic acid amide], for which the IC50 was less than 100 nM in test [1] and 100 to 1000 nM in test [2].

Consider `COCCN1CCc2cc(Nc3ncc(Cl)c(N[C@@H]4CCCC[C@H]4NS(C)(=O)=O)n3)c(OC)cc2CC1` [Example 111, N-((1R,2R)-2-{5-Chloro-2-[8-methoxy-3-(2-methoxy-ethyl)-2,3,4,5-tetrahydro-1H-benzo[d]azepin-7-ylamino]-pyrimidin-4-ylamino}-cyclohexyl)-methanesulfonamide], for which the IC50 is less than 100 nM in test [1] and more than 10000 nM in test [2].

On to `COCCN1CCc2cc(Nc3ncc(Cl)c(NC4C5C=CC(C5)C4C(N)=O)n3)c(OC)cc2CC1` (stereo not drawn) [Example 112, (2-exo,3-exo)-3-{5-Chloro-2-[8-methoxy-3-(2-methoxy-ethyl)-2,3,4,5-tetrahydro-1H-benzo[d]azepin-7-ylamino]-pyrimidin-4-ylamino}-bicyclo[2.2.1]hept-5-ene-2-carboxylic acid amide], for which the IC50 in test [1] is less than 100 nM; in test [2], more than 10000 nM.

On to `CNC(=O)c1ccccc1Nc1nc(Nc2c(OC)ccc3c2C(=O)N(C)CCC3)ncc1Cl` [Example 114, 2-[5-Chloro-2-(8-methoxy-2-methyl-1-oxo-2,3,4,5-tetrahydro-1H-benzo[c]azepin-9-ylamino)-pyrimidin-4-ylamino]-N-methyl-benzamide], for which the IC50 in test [1] and in test [2] was more than 10000 nM in each case.

As for `COc1c(Nc2ncc(Cl)c(NC3C4C=CC(C4)C3C(N)=O)n2)ccc2c1CCCC(=O)N2C` (stereo not drawn) [Example 115, (2-exo, 3-exo)-3-[5-Chloro-2-(6-methoxy-1-methyl-2-oxo-2,3,4,5-tetrahydro-1H-benzo[b]azepin-7-ylamino)-pyrimidin-4-ylamino]-bicyclo[2.2.1]hept-5-ene-2-carboxylic acid amide], the values for the IC50 in test [1] and in test [2] were less than 100 nM and more than 10000 nM, respectively.

In the case of `CNC(=O)c1ccccc1Nc1nc(Nc2ccc3c(c2OC)CCCC(=O)N3C)ncc1Cl` [Example 116, 2-[5-Chloro-2-(6-methoxy-1-methyl-2-oxo-2,3,4,5-tetrahydro-1H-benzo[b]azepin-7-ylamino)-pyrimidin-4-ylamino]-N-methyl-benzamide], the results for the IC50 in test [1] and in test [2] were less than 100 nM and 1000 to 10000 nM, respectively.

In the case of `COc1cc(N2CCOCC2)ccc1Nc1nc(Nc2ccc3c(c2OC)CCCC(=O)N3C)ncc1Cl` [Example 117, 7-[5-Chloro-4-(2-methoxy-4-morpholin-4-yl-phenylamino)-pyrimidin-2-ylamino]-6-methoxy-1-methyl-1,3,4,5-tetrahydro-benzo[b]azepin-2-one], the IC50 was less than 100 nM in test [1] and more than 10000 nM in test [2].

With `COc1c(Nc2ncc(Cl)c(N[C@@H]3CCCC[C@H]3NS(C)(=O)=O)n2)ccc2c1CCCC(=O)N2C` [Example 118, N-{(1R,2R)-2-[5-Chloro-2-(6-methoxy-1-methyl-2-oxo-2,3,4,5-tetrahydro-1H-benzo[b]azepin-7-ylamino)-pyrimidin-4-ylamino]-cyclohexyl}-methanesulfonamide], the IC50 in test [1] was less than 100 nM; in test [2], more than 10000 nM.

Take `CCN1C(=O)CCCc2c1ccc(Nc1ncc(Cl)c(N[C@@H]3CCCC[C@H]3NS(C)(=O)=O)n1)c2OC` [Example 120, N-{(1R,2R)-2-[5-Chloro-2-(1-ethyl-6-methoxy-2-oxo-2,3,4,5-tetrahydro-1H-benzo[b]azepin-7-ylamino)-pyrimidin-4-ylamino]-cyclohexyl}-methanesulfonamide]: the IC50 in test [1] was less than 100 nM; in test [2], more than 10000 nM.

Regarding `CCN1C(=O)CCCc2c1ccc(Nc1ncc(Cl)c(NC3C4C=CC(C4)C3C(N)=O)n1)c2OC` (stereo not drawn) [Example 121, (2-exo,3-exo)-3-[5-Chloro-2-(1-ethyl-6-methoxy-2-oxo-2,3,4,5-tetrahydro-1H-benzo[b]azepin-7-ylamino)-pyrimidin-4-ylamino]-bicyclo[2.2.1]hept-5-ene-2-carboxylic acid amide], the values for the IC50 in test [1] and in test [2] were less than 100 nM and more than 10000 nM, respectively.

`CNC(=O)c1ccccc1Nc1nc(Nc2ccc(OC)c3c2N(C)C(=O)CCC3)ncc1Cl` [Example 123, 2-[5-Chloro-2-(6-methoxy-1-methyl-2-oxo-2,3,4,5-tetrahydro-1H-benzo[b]azepin-9-ylamino)-pyrimidin-4-ylamino]-N-methyl-benzamide]: the IC50 was 100 to 1000 nM in test [1] and more than 10000 nM in test [2].

As for `COc1cc(N2CCOCC2)ccc1Nc1nc(Nc2ccc(OC)c3c2N(C)C(=O)CCC3)ncc1Cl` [Example 124, 9-[5-Chloro-4-(2-methoxy-4-morpholin-4-yl-phenylamino)-pyrimidin-2-ylamino]-6-methoxy-1-methyl-1,3,4,5-tetrahydro-benzo[b]azepin-2-one], the IC50 in test [1] was less than 100 nM; in test [2], more than 10000 nM.

In the case of `CCN1C(=O)CCCc2c(OC)ccc(Nc3ncc(Cl)c(Nc4ccc(N5CCOCC5)cc4OC)n3)c21` [Example 125, 9-[5-Chloro-4-(2-methoxy-4-morpholin-4-yl-phenylamino)-pyrimidin-2-ylamino]-1-ethyl-6-methoxy-1,3,4,5-tetrahydro-benzo[b]azepin-2-one], the figures for the IC50 in test [1] and in test [2] were less than 100 nM and more than 10000 nM, respectively.

As to `CNC(=O)c1ccccc1Nc1nc(Nc2ccc3c(c2OC)CCCC(=O)N3CCOC)ncc1Cl` [Example 126, 2-{5-Chloro-2-[6-methoxy-1-(2-methoxy-ethyl)-2-oxo-2,3,4,5-tetrahydro-1H-benzo[b]azepin-7-ylamino]-pyrimidin-4-ylamino}-N-methyl-benzamide], the IC50 in test [1] is less than 100 nM; in test [2], 1000 to 10000 nM.

On to `COCCN1C(=O)CCCc2c1ccc(Nc1ncc(Cl)c(Nc3ccc(N4CCOCC4)cc3OC)n1)c2OC` [Example 127, 7-[5-Chloro-4-(2-methoxy-4-morpholin-4-yl-phenylamino)-pyrimidin-2-ylamino]-6-methoxy-1-(2-methoxy-ethyl)-1,3,4,5-tetrahydro-benzo[b]azepin-2-one], for which the IC50 was less than 100 nM in test [1] and more than 10000 nM in test [2].

As to `COCCN1C(=O)CCCc2c1ccc(Nc1ncc(Cl)c(N[C@@H]3[C@H](C(N)=O)[C@H]4C=C[C@@H]3C4)n1)c2OC` [Example 128, (2-exo,3-exo)-3-{5-Chloro-2-[6-methoxy-1-(2-methoxy-ethyl)-2-oxo-2,3,4,5-tetrahydro-1H-benzo[b]azepin-7-ylamino]-pyrimidin-4-ylamino}-bicyclo[2.2.1]hept-5-ene-2-carboxylic acid amide], the IC50 in test [1] was less than 100 nM; in test [2], more than 10000 nM.

Consider `CCN1C(=O)CCCc2c1ccc(Nc1ncc(Cl)c(NC3C4CCC(C4)C3C(N)=O)n1)c2OC` (stereo not drawn) [Example 129, (2-exo, 3-exo)-3-[5-Chloro-2-(1-ethyl-6-methoxy-2-oxo-2,3,4,5-tetrahydro-1H-benzo[b]azepin-7-ylamino)-pyrimidin-4-ylamino]-bicyclo[2.2.1]heptane-2-carboxylic acid amide], for which the IC50 in test [1] was less than 100 nM; in test [2] it was more than 10000 nM.

In the case of `CCN1C(=O)CCCc2cc(Nc3ncc(Cl)c(N[C@@H]4CCCC[C@H]4NS(C)(=O)=O)n3)c(OC)cc21` [Example 130, N-{(1R,2R)-2-[5-Chloro-2-(1-ethyl-8-methoxy-2-oxo-2,3,4,5-tetrahydro-1H-benzo[b]azepin-7-ylamino)-pyrimidin-4-ylamino]-cyclohexyl}-methanesulfonamide], the IC50 is less than 100 nM in test [1] and more than 10000 nM in test [2].

On to `CCN1C(=O)CCCc2c1ccc(Nc1ncc(Cl)c(N[C@@H]3[C@H](C(N)=O)[C@H]4C=C[C@@H]3C4)n1)c2OC` [Example 132, (1R,2R,3S,4S)-3-[5-Chloro-2-(1-ethyl-6-methoxy-2-oxo-2,3,4,5-tetrahydro-1H-benzo[b]azepin-7-ylamino)-pyrimidin-4-ylamino]-bicyclo[2.2.1]hept-5-ene-2-carboxylic acid amide], for which the IC50 was 1000 to 10000 nM in test [1] and more than 10000 nM in test [2].

`CCN1C(=O)CCCc2c1ccc(Nc1ncc(Cl)c(N[C@H]3[C@@H](C(N)=O)[C@@H]4C=C[C@H]3C4)n1)c2OC` [Example 133, (1S,2S,3R,4R)-3-[5-Chloro-2-(1-ethyl-6-methoxy-2-oxo-2,3,4,5-tetrahydro-1H-benzo[b]azepin-7-ylamino)-pyrimidin-4-ylamino]-bicyclo[2.2.1]hept-5-ene-2-carboxylic acid amide]: the IC50 in test [1] is less than 100 nM; in test [2] it was more than 10000 nM.

Take `CCN1C(=O)CCCc2cc(Nc3ncc(Cl)c(Nc4ccc(N5CCOCC5)cc4OC)n3)c(OC)cc21` [Example 135, 7-[5-Chloro-4-(2-methoxy-4-morpholin-4-yl-phenylamino)-pyrimidin-2-ylamino]-1-ethyl-8-methoxy-1,3,4,5-tetrahydro-benzo[b]azepin-2-one]: the IC50 is less than 100 nM in test [1] and more than 10000 nM in test [2].

Consider `CCN1C(=O)CCCc2cc(Nc3ncc(Cl)c(Nc4cc(Cl)ccc4OC)n3)c(OC)cc21` [Example 137, 7-[5-Chloro-4-(5-chloro-2-methoxy-phenylamino)-pyrimidin-2-ylamino]-1-ethyl-8-methoxy-1,3,4,5-tetrahydro-benzo[b]azepin-2-one], for which the values for the IC50 in test [1] and in test [2] were 100 to 1000 nM and more than 10000 nM, respectively.
